Test results taken from patent publication US12115209B2, “ROMO1-derived antimicrobial peptides including lysine substitution and variants thereof” (KOREA UNIVERSITY RESEARCH AND BUSINESS FOUNDATION, priority 2019, dated 2024).
No end group written: not given here.

Experiments:
Type in all cases: cell-based
[1] = system: Pseudomonas aeruginosa (ATCC 27853); assay: Minimum bactericidal concentration (MBC) assay; design: MBC Pseudomonas aeruginosa: unit: µg/mL
Description: (§1) First, each of Pseudomonas aeruginosa (ATCC 27853) and Staphylococcus aureus (ATCC 29213) was cultured in 3% (w/v) TSB (tryptic soy broth) liquid medium at 37° C. and 200 rpm for 4 hours, and then further cultured under the same conditions for 3 hours to a concentration of 5×10^6 CFU/ml. Strain solutions were prepared by diluting each of the further cultured strains with SP (sodium phosphate; 10 mM sodium phosphate, 1% TSB) buffer to a final concentration of 2×10^5 CFU/ml.
(§2) Then, each peptide at varying concentrations (0 μg/ml to 300 μg/ml) was dispensed into each well of a 96-well microplate, and 100 μl (1×10^5 CFU/ml) of each of the prepared strain solutions was added thereto, mixed therewith, and allowed to react with the peptide in an incubator at 37° C. for 1 hour.
(§3) In addition, 30 g/L of TS (tryptic soy) and 15 g/L of agar were dissolved in distilled water and sterilized, and then 25 ml of the solution was poured onto a 100 mm round plate and solidified at room temperature for one day or more, thereby preparing a TS agar plate. 10 μl of each reaction solution of the peptide and the strain was plated on the TS agar plate at a constant size, and incubated in an incubator at 37° C. for 18 hours, and then colony formation on the plate was checked. The minimum bactericidal concentration was defined as the minimum concentration of the peptide at which no colony was formed, and the experimental results are shown in Table 1 below.

[2] = system: Staphylococcus aureus (ATCC 29213); assay: Minimum bactericidal concentration (MBC) assay; design: MBC Staphylococcus aureus: unit: µg/mL
Description: as §1, §2, §3

[3] = system: CRPA; assay: Minimum bactericidal concentration (MBC) assay; design: unit: µg/mL
[4] = system: Methicillin-resistant Staphylococcus aureus (MRSA, ATCC 33591); assay: Minimum bactericidal concentration (MBC) assay; design: unit: µg/mL
Description: as §1, with “2×10^5 CFU/ml. […]” for “2×10^5 CFU/ml.”
as §3, with “checked.” for “checked. The minimum bactericidal concentration was defined as the minimum concentration of the peptide at which no colony was formed, and the experimental results are shown in Table 1 below.”
Specifically, each type of bacteria was cultured in 3% (w/v) TSB (tryptic soy broth) liquid medium at 37° C. and 200 rpm for 4 hours, and then further cultured under the same conditions for 3 hours to a concentration of 5×10^6 CFU/ml. Strain solutions were prepared by diluting each of the further cultured strains with SP buffer to a final concentration of 2×10^5 CFU/ml.
as §2, with “Then, the KU-5878” for “Then, each”
In addition, 10 μl of each reaction solution of the peptide and the strain was plated on the TS agar plate at a constant size, and incubated in an incubator at 37° C. for 18 hours, and then colony formation on the plate was checked.

[5] = system: Pseudomonas aeruginosa, Staphylococcus aureus, CRPA, MRSA; assay: Increase in antibacterial activity (MBC) compared with KU-5878
[6] = mark = antibacterial activity increased compared with KU-5878

Substance	MBC Pseudomonas aeruginosa ([1]; Tables 11-21, no unit printed)	MBC Staphylococcus aureus ([2]; Tables 11-21, no unit printed)	MBC CRPA ([3]; Tables 11-21, no unit printed)	MBC MRSA ([4]; Tables 11-21, no unit printed)	Increase in activity [5, 6]	MBC Pseudomonas aeruginosa ([1]; Pseudomonas aeruginosa) [µg/mL]	MBC Staphylococcus aureus ([2]; Staphylococcus aureus) [µg/mL]	MBC CRPA ([3]; CRPA) [µg/mL]	MBC MRSA ([4]; MRSA) [µg/mL]	Increase in activity ([5]; compared with KU-5878)
-KMMKKGGKFGTF-AIG-GIR [d 58K 71M 75M]	4 µg/mL	3 µg/mL	2 µg/mL	4 µg/mL	◯	–	–	–	–	–
KKMMKKGGK-GTFMAIGMGIR [Peptide 5878-K4-d67F]	4 µg/mL	6 µg/mL	5 µg/mL	4 µg/mL	◯	–	–	–	–	–
KTMMQSGGTFGTFMAI-MGIR [Peptide 5878-d74G]	20 µg/mL	25 µg/mL	30 µg/mL	25 µg/mL	0	–	–	–	–	–
-K-MKKGGKFGTFMAIG-GIR [d 58K 60M 75M]	6 µg/mL	6 µg/mL	8 µg/mL	8 µg/mL	◯	–	–	–	–	–
KTMM-SGGTFGTFMAIGMGIR [Peptide 5878-4620]	100 µg/mL	90 µg/mL	100 µg/mL	100 µg/mL	0	–	–	–	–	–
KTMMQSGGTF-TFMAIGMGIR [Peptide 5878-d68G]	25 µg/mL	20 µg/mL	18 µg/mL	25 µg/mL	0	–	–	–	–	–
KKMMKKGGKF-TFMAIGMGIR [Peptide 5878-K4-d68G]	4 µg/mL	4 µg/mL	6 µg/mL	4 µg/mL	◯	–	–	–	–	–
KKIIKKGGKFGTFIAIGIGIR [Peptide K4-4MI]	3	2	3	3	◯	–	–	–	–	–
KTMMQSGGTFGTFMAIGMGIRRRR [Peptide 5878-3R]	8 µg/mL	8 µg/mL	8 µg/mL	10 µg/mL	◯	–	–	–	–	–
KK-MKKGGKFGTF--IGMGIR [d 60M 71M 72A]	8 µg/mL	8 µg/mL	8 µg/mL	10 µg/mL	◯	–	–	–	–	–
KKMMKKGGTFGTFMAIGMGIR [KU-5878-K3 (T59K, Q62K, S63K)]	4 µg/mL	4 µg/mL	4 µg/mL	5 µg/mL	◯	–	–	–	–	–
KKMMKK-GKFGTFMAIGMGIR [5878-K4-d64G(=d65G)]	2 µg/mL	2 µg/mL	4 µg/mL	2 µg/mL	◯	–	–	–	–	–
KKMMKKGGKFGTFMAIGM-IR [Peptide 5878-K4-d76G]	4 µg/mL	4 µg/mL	4 µg/mL	4 µg/mL	◯	–	–	–	–	–
d 58K 60M 71M 72A (MKKGGKFGTF)	–	–	–	–	–	20	15	20	20	◯
KKMMKKGGKFGTF-AIG-GIR [Peptide K4-d71M-d75M]	4 µg/mL	3 µg/mL	4 µg/mL	5 µg/mL	◯	–	–	–	–	–
KKMM-KGGKFGTFMAIGMGIR [5878-K4-d62K(=d63K)]	2 µg/mL	6 µg/mL	6 µg/mL	6 µg/mL	◯	–	–	–	–	–
KKMM-K-GKF-TFM-IG-GIR [d 62K 64G 68G 72A 75M]	4 µg/mL	4 µg/mL	4 µg/mL	4 µg/mL	◯	–	–	–	–	–
KKMMKKGGKFGTFMAI-MGIR [Peptide 5878-K4-d74G]	2 µg/mL	2 µg/mL	4 µg/mL	3 µg/mL	◯	–	–	–	–	–
KK-MKKGGKFGTF-AIGMGIR [Peptide K4-d60M-d71M]	10 µg/mL	10 µg/mL	10 µg/mL	12 µg/mL	◯	–	–	–	–	–

Substance	MBC Pseudomonas aeruginosa ([1]; Tables 11-21, no unit printed)	MBC Staphylococcus aureus ([2]; Tables 11-21, no unit printed)	MBC CRPA ([3]; Tables 11-21, no unit printed)	MBC MRSA ([4]; Tables 11-21, no unit printed)	Increase in activity [5, 6]	MBC Pseudomonas aeruginosa ([1]; Pseudomonas aeruginosa) [µg/mL]	MBC Staphylococcus aureus ([2]; Staphylococcus aureus) [µg/mL]	MBC CRPA ([3]; CRPA) [µg/mL]	MBC MRSA ([4]; MRSA) [µg/mL]	Increase in activity ([5]; compared with KU-5878)
KTMMQTGGTFGTFMAIGMGIR [KU-5878-S63T]	> 300 µg/mL	> 300 µg/mL	> 300 µg/mL	> 300 µg/mL	–	–	–	–	–	–
RTMMQSGGTFGTFMAIGMGIR [KU-5878-K58R]	120 µg/mL	120 µg/mL	120 µg/mL	120 µg/mL	–	–	–	–	–	–
KTMMKSGGTFGTFMAIGMGIR [KU-5878-Q62K]	90 µg/mL	80 µg/mL	90 µg/mL	90 µg/mL	–	–	–	–	–	–
KTMMQSGGTFGTFMA-GMGIR [Peptide 5878-4731]	> 300 µg/mL	> 300 µg/mL	> 300 µg/mL	> 300 µg/mL	–	–	–	–	–	–
KTMMQSGGTFGTFMAKGMGIR [KU-5878-I73K]	> 300 µg/mL	> 300 µg/mL	> 300 µg/mL	> 300 µg/mL	–	–	–	–	–	–
KTMMQSGGTFGTFMAIGMGI [KU-5877]	300 µg/mL	300 µg/mL	> 300 µg/mL	> 300 µg/mL	–	–	–	–	–	–
KTMMQSGGTAGTFMAIGMGIR [KU-5878-F67A]	> 300 µg/mL	> 300 µg/mL	> 300 µg/mL	> 300 µg/mL	–	–	–	–	–	–
KTMMQSGGTFGTFMAAGMGIR [KU-5878-I73A]	> 300 µg/mL	> 300 µg/mL	> 300 µg/mL	> 300 µg/mL	–	–	–	–	–	–
KTMMQSGGRFGTFMAIGMGIR [KU-5878-T66R]	80 µg/mL	90 µg/mL	80 µg/mL	90 µg/mL	–	–	–	–	–	–
KTMMQSGGTFGT-MAIGMGIR [Peptide 5878-d70F]	200 µg/mL	200 µg/mL	200 µg/mL	200 µg/mL	–	–	–	–	–	–
KTMMQSGGT-GTFMAIGMGIR [Peptide 5878-d67F]	200 µg/mL	200 µg/mL	200 µg/mL	200 µg/mL	–	–	–	–	–	–
KTMMQSGGTFGTF-AIGMGIR [Peptide 5878-d71M]	250 µg/mL	250 µg/mL	300 µg/mL	300 µg/mL	–	–	–	–	–	–
KTMMQSGGTFGTFMAIGMGIRQ [Peptide 5878-Q]	150 µg/mL	180 µg/mL	180 µg/mL	180 µg/mL	–	–	–	–	–	–
KTMMQSGGTFGTFMAIGMGAR [KU-5878-I77A]	> 300 µg/mL	> 300 µg/mL	> 300 µg/mL	> 300 µg/mL	–	–	–	–	–	–
KK-MKKGGKFGTFMAIG-GIR [Peptide K4-d60M-d75M]	200 µg/mL	200 µg/mL	200 µg/mL	210 µg/mL	–	–	–	–	–	–
KTMMQSGGTFG-FMAIGMGIR [Peptide 5878-d69T]	120 µg/mL	120 µg/mL	140 µg/mL	140 µg/mL	–	–	–	–	–	–
KTMMQSGGKFGTFMAIGMGIR [KU-5878-T66K]	80 µg/mL	60 µg/mL	70 µg/mL	80 µg/mL	–	–	–	–	–	–
KTMMQSGGAFGTFMAIGMGIR [KU-5878-T66A]	> 300 µg/mL	> 300 µg/mL	> 300 µg/mL	> 300 µg/mL	–	–	–	–	–	–
KTMMQ-GGTFGTFMAIGMGIR [Peptide 5878-d63S]	200 µg/mL	200 µg/mL	200 µg/mL	200 µg/mL	–	–	–	–	–	–
